Values joined by “and” are separate entries in the source; they are usually repeats but may differ in a detail not shown here. Equal values may be shown once.
System: WiDr human colorectal adenocarcinoma
Assay: WiDr xenograft model: growth of established WiDr human colorectal tumors in athymic nude mice (tumor volume/weight, % T/C, Fa, Combination Index)
Conditions: for Fractional Inhibition of Tumor Volume (Fa), Ave. / Tumor Volume, Ave.: group average; for Volume Decrease: vs control
[1] = Gem 12.5 mg/kg, day 28, one line per animal, listed as Gem
[2] = Gem 25 mg/kg, day 28, one line per animal, listed as Gem
[3] = Gem 50 mg/kg, day 28, one line per animal, listed as Gem
[4] = Day 34, individual animals, hCBE 50
[5] = Day 34, individual animals, hCBE 500
[6] = hCBE 50 μg, day 28, one line per animal
[7] = hCBE 100 μg, day 28, one line per animal
[8] = huCBE11 50 μg, day 21, listed as hCBE

Compound: Nc1ccn([C@@H]2O[C@H](CO)[C@@H](O)C2(F)F)c(=O)n1 [Gemcitabine, gemcitabine, reference compound]
- Fractional Inhibition of Tumor Volume (Fa), Ave. (Gem 12.5 mg/kg, day 28): 0.403
- Tumor Volume, Ave. (Gem 12.5 mg/kg, day 28): 479.5
- Individual Fractional Inhibition of Tumor Volume (Fa) [1]: 0.571 and 0.001 and 0.524 and 0.490 and 0.427 and 0.479 and 0.421 and 0.632 and −0.058 and 0.543
- Individual Tumor Volumes [1]: 344.8 and 802.2 and 382.6 and 409.5 and 459.9 and 418.6 and 465.3 and 295.5 and 849.7 and 367.1
- Fractional Inhibition of Tumor Volume (Fa), Ave. (Gem 25 mg/kg, day 28): 0.603
- Tumor Volume, Ave. (Gem 25 mg/kg, day 28): 319.0
- Individual Fractional Inhibition of Tumor Volume (Fa) [2]: 0.678 and 0.561 and 0.657 and 0.440 and 0.505 and 0.574 and 0.712 and 0.703 and 0.559 and 0.641
- Individual Tumor Volumes [2]: 258.5 and 352.8 and 275.7 and 450.0 and 397.8 and 342.6 and 230.9 and 238.8 and 354.3 and 288.2
- Fractional Inhibition of Tumor Volume (Fa), Ave. (Gem 50 mg/kg, day 28): 0.594
- Tumor Volume, Ave. (Gem 50 mg/kg, day 28): 326.0
- Individual Fractional Inhibition of Tumor Volume (Fa) [3]: 0.602 and 0.812 and 0.747 and 0.502 and 0.445 and 0.538 and 0.447 and 0.774 and 0.659 and 0.417
- Individual Tumor Volumes [3]: 319.6 and 151.2 and 203.1 and 400.1 and 446.1 and 370.9 and 444.1 and 181.8 and 274.1 and 468.6
- Fraction Affected (Gemcitabine 12.5 mg/kg given separately, day 28): 0.403
- Tumor Volume (Gemcitabine 12.5 mg/kg, day 28): 479.5
- Volume Decrease (Gemcitabine 12.5 mg/kg, day 28): 323.7
- Fraction Affected (Gemcitabine 25 mg/kg given separately, day 28): 0.603
- Tumor Volume (Gemcitabine 25 mg/kg, day 28): 318.9
- Volume Decrease (Gemcitabine 25 mg/kg, day 28): 484.3
- Tumor Volume (Gemcitabine 50 mg/kg, day 28): 326.0
- Volume Decrease (Gemcitabine 50 mg/kg, day 28): 477.2
- Median Effect Dose (Gemcitabine combined with huCBE11 (0.568:1), day 28): 4.2 mg/kg
- Median Effect Dose (Gemcitabine given separately, day 28): 16.7 mg/kg
- Inhibition of tumor growth vs vehicle control (gemcitabine 12.5 mg/kg, Day 41, separate study): No significant inhibition
- % T/C (gemcitabine 25 mg/kg, Days 21 and 28): below 42%
- Activity by NCI criteria (% T/C of 42 or less) (gemcitabine 50 mg/kg to […], Day 41): inactive
- % T/C (gemcitabine 50 mg/kg, Days 17 to 28): below 42%

Compound: huCBE11: humanized anti-LT-β-R agonist antibody (LTβ receptor-activating mAb), described in WO 02/30986
- Fa (Fraction Affected) (Day 34, huCBE11 5 ug): 0.256
- Tumor Volume (Day 34, huCBE11 5 ug): 1024.0
- Volume Decrease (Day 34, huCBE11 5 ug): 352.4
- Fa (Fraction Affected) (Day 34, huCBE11 50 ug): 0.361
- Tumor Volume (Day 34, huCBE11 50 ug): 880.1
- Volume Decrease (Day 34, huCBE11 50 ug): 496.3
- Fa (Fraction Affected) (Day 34, huCBE11 500 ug): 0.466
- Tumor Volume (Day 34, huCBE11 500 ug): 735.6
- Volume Decrease (Day 34, huCBE11 500 ug): 640.8
- Median Effect Dose (Day 34, huCBE11 Given Separately): 932.9 µg
- Median Effect Dose (Day 34, huCBE11 dose, Combined (0.333:1) with Taxol): 19.8 µg
- Individual Fractional Inhibition of Tumor Volume [4]: 0.039 and 0.536 and 0.420 and 0.452 and 0.391 and 0.290 and 0.423 and 0.674 and −0.234 and 0.614
- Individual Tumor Volumes [4]: 1322.2 and 638.5 and 798.8 and 754.3 and 838.2 and 976.8 and 794.0 and 448.6 and 1698.4 and 531.6
- Individual Fractional Inhibition of Tumor Volume [5]: 0.174 and 0.360 and 0.502 and 0.529 and 0.688 and 0.717 and 0.395 and 0.607 and 0.230 and 0.454
- Individual Tumor Volumes [5]: 1136.7 and 881.2 and 685.7 and 648.1 and 430.1 and 389.8 and 832.1 and 541.3 and 1059.8 and 751.2
- Tumor weight vs vehicle control (all huCBE11 groups (500, 100, 50 μg), day 42): statistically significantly lower
- Fractional Inhibition of Tumor Volume (Fa), Ave. (hCBE 50 μg, day 28): 0.442
- Tumor Volume, Ave. (hCBE 50 μg, day 28): 448.0
- Individual Fractional Inhibition of Tumor Volume (Fa) [6]: 0.467 and 0.547 and 0.564 and 0.463 and 0.456 and 0.350 and −0.060 and 0.245 and 0.827 and 0.562
- Individual Tumor Volumes [6]: 428.2 and 363.5 and 350.4 and 431.3 and 437.1 and 521.8 and 851.1 and 606.1 and 138.7 and 352.2
- Fractional Inhibition of Tumor Volume (Fa), Ave. (hCBE 100 μg, day 28): 0.519
- Tumor Volume, Ave. (hCBE 100 μg, day 28): 386.1
- Individual Fractional Inhibition of Tumor Volume (Fa) [7]: 0.754 and −0.210 and 0.441 and 0.590 and 0.596 and 0.449 and 0.682 and 0.556 and 0.723 and 0.614
- Individual Tumor Volumes [7]: 197.9 and 972.2 and 449.1 and 329.2 and 324.7 and 442.5 and 255.6 and 356.8 and 222.4 and 310.4
- Fa (Fraction Affected), group mean (huCBE11 5 μg, day 21): 0.265
- Tumor Volume, group mean (huCBE11 5 μg, day 21): 319.0
- Volume Decrease vs control, group mean (huCBE11 5 μg, day 21): 115.0
- Fa (huCBE11 5 μg, day 28): 0.143
- Tumor Volume (huCBE11 5 μg, day 28): 688.4
- Volume Decrease (huCBE11 5 μg, day 28): 114.8
- Inhibition of tumor growth (huCBE11 5 μg, gemcitabine parallel study): did not significantly inhibit tumor growth
- Fraction Affected (huCBE11 50 μg given separately, day 28): 0.442
- % T/C (huCBE11 50 μg, Day 41): 43.5%
- Fa (Fraction Affected), group mean (huCBE11 50 μg, day 21): 0.383
- Tumor Volume, group mean (huCBE11 50 μg, day 21): 267.8
- Volume Decrease vs control, group mean (huCBE11 50 μg, day 21): 166.2
- Fa, individual animals [8]: 0.607 and 0.437 and 0.466 and 0.590 and 0.298 and 0.605 and 0.179 and −0.015 and 0.415 and 0.247
- Tumor volume, individual animals [8]: 170.5 and 244.3 and 231.8 and 178.1 and 304.5 and 171.3 and 356.5 and 440.3 and 254.0 and 326.6
- Tumor Volume (huCBE11 50 μg, day 28): 448.0
- Volume Decrease (huCBE11 50 μg, day 28): 355.2
- Fa (fractional inhibition of tumor volume), group mean (huCBE11 50 μg, day 35): 0.437
- Fa, individual animals (huCBE11 50 μg, day 35): 0.723 and 0.666 and 0.660 and 0.636 and 0.318 and −0.502 and 0.321 and 0.473 and 0.743 and 0.329
- Tumor Volume, group mean (huCBE11 50 μg, day 35): 633.2
- Tumor volume, individual animals (huCBE11 50 μg, day 35): 311.9 and 375.4 and 381.9 and 409.6 and 766.4 and 1688.6 and 762.8 and 592.2 and 289.2 and 754.4
- Volume Decrease vs control, group mean (huCBE11 50 μg, day 35): 490.8
- Fa (fractional inhibition of tumor volume), group mean (huCBE11 50 μg, day 44): 0.387
- Fa, individual animals (huCBE11 50 μg, day 44): 0.656 and 0.434 and 0.559 and 0.498 and 0.143 and 0.591 and −0.316 and 0.381 and 0.406 and 0.516
- Tumor Volume, group mean (huCBE11 50 μg, day 44): 869.7
- Tumor volume, individual animals (huCBE11 50 μg, day 44): 487.5 and 802.7 and 624.9 and 712.0 and 1216.2 and 580.7 and 1866.3 and 878.7 and 842.6 and 686.0
- Volume Decrease vs control, group mean (huCBE11 50 μg, day 44): 548.9
- Fraction Affected (huCBE11 100 μg given separately, day 28): 0.519
- % T/C (huCBE11 100 μg, Day 41): 40.0%
- Tumor Volume (huCBE11 100 μg, day 28): 386.1
- Volume Decrease (huCBE11 100 μg, day 28): 417.1
- Fa (fractional inhibition of tumor volume), group mean (huCBE11 100 μg, day 35): 0.645
- Fa, individual animals (huCBE11 100 μg, day 35): 0.762 and 0.814 and 0.781 and 0.739 and 0.750 and 0.344 and 0.593 and 0.696 and 0.119 and 0.848
- Tumor Volume, group mean (huCBE11 100 μg, day 35): 399.5
- Tumor volume, individual animals (huCBE11 100 μg, day 35): 267.9 and 208.9 and 245.8 and 293.4 and 281.4 and 737.5 and 457.4 and 341.5 and 990.1 and 171.4
- Volume Decrease vs control, group mean (huCBE11 100 μg, day 35): 724.5
- Activity by NCI criteria (% T/C of 42 or less) (huCBE11 100 μg, gemcitabine parallel study): active
- % T/C (huCBE11 500 μg and 50 μg groups, days 35 or 38 to 42): < 42%
- % T/C (huCBE11 500 μg and 100 μg groups, days 32 to 42): < 42%
- Activity by NCI criteria (huCBE11 500 μg, 100 μg, 50 μg, adriamycin parallel study): active
- % T/C (huCBE11 500 μg, Days 31 to 45): below 42%
- Fa (Fraction Affected), group mean (huCBE11 500 μg, day 21): 0.418
- Tumor Volume, group mean (huCBE11 500 μg, day 21): 252.5
- Volume Decrease vs control, group mean (huCBE11 500 μg, day 21): 181.5
- Fa (fractional inhibition of tumor volume), group mean (huCBE11 500 μg, day 35): 0.648
- Fa, individual animals (huCBE11 500 μg, day 35): 1.000 and 0.750 and 0.305 and 0.758 and 0.522 and 0.756 and 0.672 and 0.670 and 0.307 and 0.736
- Tumor Volume, group mean (huCBE11 500 μg, day 35): 396.0
- Tumor volume, individual animals (huCBE11 500 μg, day 35): 0.1 and 280.9 and 781.0 and 272.3 and 537.5 and 273.7 and 368.7 and 370.6 and 778.7 and 296.8
- Volume Decrease vs control, group mean (huCBE11 500 μg, day 35): 728.0
- Fa (fractional inhibition of tumor volume), group mean (huCBE11 500 μg, day 44): 0.567
- Fa, individual animals (huCBE11 500 μg, day 44): 0.930 and 0.334 and 0.624 and 0.765 and 0.669 and 0.538 and 0.285 and 0.489 and 0.488 and 0.545
- Tumor Volume, group mean (huCBE11 500 μg, day 44): 614.7
- Tumor volume, individual animals (huCBE11 500 μg, day 44): 99.1 and 944.8 and 534.1 and 333.2 and 469.4 and 655.8 and 1014.0 and 725.3 and 726.2 and 645.6
- Volume Decrease vs control, group mean (huCBE11 500 μg, day 44): 803.9
- Activity by NCI criteria (% T/C of 42 or less) (huCBE11, Camptosar parallel study): active
- Median Effect Dose (huCBE11 combined with Camptosar (0.555:1), day 21): 10.2 µg
- Median Effect Dose (huCBE11 combined with Gemcitabine (0.568:1), day 28): 7.3 µg
- Median Effect Dose (huCBE11 given separately, day 21): 2933 µg
- Median Effect Dose (huCBE11 given separately, day 28): 81.1 µg

Reference: US20060134102A1, “Lymphotoxin beta receptor agents in combination with chemotherapeutic agents” (Biogen Idec MA Inc., priority 2002, published 2006)
